In patent US20230321104A1, “USE OF PYRIDO[1,2-A]PYRIMIDINONE COMPOUND IN TREATING PERIPHERAL T CELL LYMPHOMA” (CHIA TAI TIANQING PHARMACEUTICAL GROUP CO., LTD., priority 2020, published 2023):

Test system: relapsed/refractory peripheral T-cell lymphoma (PTCL)
Assay: Clinical trials on peripheral T-cell lymphoma
Type: in vivo, human
Conditions: for SPD (sum of products of maximum vertical diameters of multiple lesions): baseline 717 mm
Experimental: 2.1 Administration Regimen • Method of administration: orally administered once daily, 15 mg or 20 mg each time, with 21 consecutive days of administration as one cycle. • Drug: tablet of the compound of formula I, 5 mg or 20 mg.
2.2 Enrollment Criteria • 1) Histopathologically confirmed relapsed/refractory peripheral T-cell lymphoma (PTCL), including four subtypes: peripheral T-cell lymphoma, not otherwise specified (PTCL-NOS); angioimmunoblastic T-cell lymphoma (AITL); anaplastic large cell lymphoma (ALCL); and extranodal NK/T cell lymphoma (NKTCL), nasal type; • 2) Has previously received at least first-line systemic treatment regimen, had disease progression during or after the most recent treatment, or had no objective response after adequate treatment; • 3) At least one measurable target lesion present (evaluated according to the Lugano evaluation criteria, 2014 edition); • 4) Age ≥18 years; ECOG (PS) score: 0-2; expected survival time ≥3 months; • 5) Main organ functions in the screening phase meet the following criteria:
Criteria for Blood Routine Examination (No Growth Factor Used or No Blood Transfusion Conducted within 14 Days): • Absolute neutrophil count (ANC)≥1.0×10^9/L; • Lymphocyte count (LYM)≥0.5×10^9/L; • CD4+ T lymphocyte count≥0.2×10^9/L; • Platelet (PLT)≥75×10^9/L (for patients with lymphoma bone marrow infiltration, ≥50×10^9/L acceptable); • Hemoglobin (Hb)≥80 g/L;

[1] = patients with peripheral T-cell lymphoma, oral once daily 15 mg or 20 mg

COc1ncc(-c2ccc3ncc(OCCN(C)C)c(=O)n3c2)cc1NS(=O)(=O)c1ccc(F)cc1Cl [compound of formula I]
objective response rate (ORR) (6 enrolled patients with peripheral T-cell lymphoma (3/6), oral once daily 15 mg or 20 mg, 21-day cycle, Lugano 2014 criteria): 50% | SPD (sum of products of maximum vertical diameters of multiple lesions) (Case 1, ALK negative anaplastic large cell lymphoma, 15 mg each day, after 2 cycles of medication): 495 mm | overall therapeutic effect (Case 1, ALK negative anaplastic large cell lymphoma, 15 mg each day, after 4 cycles): complete response (CR) | new lesion (Case 1, 15 mg each day, after 4 cycles): no new lesion was found | SUVmax of the highest uptake lesion, the left parotid gland area (PET-CT) (Case 1, 15 mg each day, after 4 cycles of medication, baseline 7.0): 1.5 | SPD (sum of products of maximum vertical diameters of multiple lesions) (Case 1, 15 mg each day, after 4 cycles of medication): 409 mm | therapeutic effect (Case 2, extranodal NK/T cell lymphoma, nasal type, 15 mg each day, after 2 cycles of treatment): partial response (PR) | SPD of measurable target lesions (enhanced MRI) (Case 2, extranodal NK/T cell lymphoma, nasal type, 15 mg each day, after 2 cycles of treatment, before treatment 280 mm): 117 mm | new lesion (Case 2, 15 mg each day, after 2 cycles of treatment): no new lesion was found | decrease of SPD (Case 2, 15 mg each day, after 2 cycles of treatment, versus 280 mm before treatment): 58.2% | safety in treatment [1]: good safety | therapeutic effect on peripheral T-cell lymphoma [1]: good therapeutic effect
